{
  "source": "PubChem BioAssay AID328",
  "about": "(DTP/NCI, 2004)",
  "test_system": "BDF1 mice, P388 leukemia ip, median survival T/C",
  "test": "NCI In Vivo Anticancer Drug Screen. Data for tumor model P388 Leukemia (intraperitoneal) in B6D2F1 (BDF1) mice",
  "settings": "endpoint: median survival time, higher = longer survival",
  "procedure,_shortened": "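Transplantable tumour in mice; compound vs vehicle dosing; survival scored; ratio of treated to control reported.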",
  "key": {"[1]": {"settings": "dose: 100.0 mg/kg/injection, schedule: Q04DX003 (ip), vehicle: saline with Tween-80"}, "[2]": {"settings": "dose: 200.0 mg/kg/injection, schedule: Q04DX003 (ip), vehicle: saline with Tween-80"}, "[3]": {"settings": "dose: 400.0 mg/kg/injection, schedule: Q04DX003 (ip), vehicle: saline with Tween-80"}, "[4]": {"settings": "dose: 50.0 mg/kg/injection, schedule: Q01DX009 (ip), vehicle: Klucel (hydroxypropylcellulose) (HPC)"}, "[5]": {"settings": "dose: 100.0 mg/kg/injection, schedule: Q01DX009 (ip), vehicle: Klucel (hydroxypropylcellulose) (HPC)"}, "[6]": {"settings": "dose: 50.0 mg/kg/injection, schedule: Q01DX009 (ip), vehicle: saline"}, "[7]": {"settings": "dose: 50.0 mg/kg/injection, schedule: Q01DX009 (ip), vehicle: saline with Tween-80"}, "[8]": {"settings": "dose: 100.0 mg/kg/injection, schedule: Q01DX009 (ip), vehicle: saline with Tween-80"}, "[9]": {"settings": "dose: 200.0 mg/kg/injection, schedule: Q01DX009 (ip), vehicle: saline with Tween-80"}, "[10]": {"settings": "dose: 400.0 mg/kg/injection, schedule: Q01DX009 (ip), vehicle: saline with Tween-80"}},
  "note": "“And” between values parts separate entries of the source, which are not always exact repeats. Equal values may be shown once. Toxic doses and inconclusive results are not listed.",
  "data": [
    {"smiles": "CC1C2CCCC1(OC(=O)c1cc([N+](=O)[O-])cc([N+](=O)[O-])c1)C2", "note": "(stereo not drawn)", "values": [
      {"measurement": "T/C", "setting": "dose: 100.0 mg/kg/injection, schedule: Q04DX002 (ip), vehicle: saline with Tween-80", "result": "101 % of control"},
      {"measurement": "T/C", "setting": "dose: 200.0 mg/kg/injection, schedule: Q04DX002 (ip), vehicle: saline with Tween-80", "result": "94 % of control"},
      {"measurement": "T/C", "setting": "dose: 400.0 mg/kg/injection, schedule: Q04DX002 (ip), vehicle: saline with Tween-80", "result": "95 % of control"}
    ]},
    {"smiles": "COC(=O)c1cncc(C(=O)OC)c1", "values": [
      {"measurement": "T/C", "setting": "[1]", "result": "100 % of control"},
      {"measurement": "T/C", "setting": "dose: 176.0 mg/kg/injection, schedule: Q04DX003 (ip), vehicle: saline with Tween-80", "result": "100 % of control"},
      {"measurement": "T/C", "setting": "[2]", "result": "95 % of control"},
      {"measurement": "T/C", "setting": "dose: 264.0 mg/kg/injection, schedule: Q04DX003 (ip), vehicle: saline with Tween-80", "result": "100 % of control"},
      {"measurement": "T/C", "setting": "[3]", "result": "100 % of control"}
    ]},
    {"smiles": "C(=C\\CN(Cc1ccccc1)Cc1ccccc1)/CN(Cc1ccccc1)Cc1ccccc1", "values": [
      {"measurement": "T/C", "setting": "[4]", "result": "104 % of control"},
      {"measurement": "T/C", "setting": "[5]", "result": "104 % of control"},
      {"measurement": "T/C", "setting": "dose: 200.0 mg/kg/injection, schedule: Q01DX009 (ip), vehicle: Klucel (hydroxypropylcellulose) (HPC)", "result": "95 % of control"}
    ]},
    {"smiles": "c1ccc(N2CCNCC2)cc1", "values": [
      {"measurement": "T/C", "setting": "dose: 6.25 mg/kg/injection, schedule: Q04DX003 (ip), vehicle: saline sonified", "result": "95 % of control"},
      {"measurement": "T/C", "setting": "dose: 12.5 mg/kg/injection, schedule: Q04DX003 (ip), vehicle: saline sonified", "result": "100 % of control"},
      {"measurement": "T/C", "setting": "dose: 25.0 mg/kg/injection, schedule: Q04DX003 (ip), vehicle: saline sonified", "result": "104 % of control"}
    ]},
    {"smiles": "Nc1ccc(N(CCCl)CCN(CCCl)c2ccc(N)cc2)cc1", "values": [
      {"measurement": "T/C", "setting": "dose: 0.8 mg/kg/injection, schedule: Q01DX009 (ip), vehicle: saline", "result": "154 % of control"},
      {"measurement": "T/C", "setting": "dose: 1.2 mg/kg/injection, schedule: Q01DX009 (ip), vehicle: saline", "result": "181 % of control"},
      {"measurement": "T/C", "setting": "dose: 1.8 mg/kg/injection, schedule: Q01DX009 (ip), vehicle: saline", "result": "204 % of control"}
    ]},
    {"smiles": "Cn1/c2cc/c1=C(\\c1ccc(S(=O)(=O)O)cc1)c1ccc([n-]1)/C(c1ccc(S(=O)(=O)O)cc1)=c1/cc/c([nH]1)=C(\\c1ccc(S(=O)(=O)O)cc1)c1ccc([n-]1)/C=2c1ccc(S(=O)(=O)O)cc1.O.O=S(=O)(O)C(F)(F)F.[Cu+2]", "values": [
      {"measurement": "T/C", "setting": "dose: 6.25 mg/kg/injection, schedule: Q01DX009 (ip), vehicle: saline", "result": "101 % of control"},
      {"measurement": "T/C", "setting": "[6]", "result": "101 % of control"}
    ]},
    {"smiles": "CC[N+](C)(C)c1ncnc2nc[nH]c12", "values": [
      {"measurement": "T/C", "setting": "dose: 25.0 mg/kg/injection, schedule: Q01DX009 (ip), vehicle: saline", "result": "91 % of control"},
      {"measurement": "T/C", "setting": "[6]", "result": "95 % of control"},
      {"measurement": "T/C", "setting": "dose: 100.0 mg/kg/injection, schedule: Q01DX009 (ip), vehicle: saline", "result": "87 % of control and 91 % of control"},
      {"measurement": "T/C", "setting": "dose: 100.0 mg/kg/injection, schedule: Q04DX003 (ip), vehicle: saline", "result": "104 % of control"},
      {"measurement": "T/C", "setting": "dose: 200.0 mg/kg/injection, schedule: Q01DX009 (ip), vehicle: saline", "result": "95 % of control"},
      {"measurement": "T/C", "setting": "dose: 200.0 mg/kg/injection, schedule: Q04DX003 (ip), vehicle: saline", "result": "104 % of control"}
    ]},
    {"smiles": "CN(C)c1ccc(/C=C/c2ccnc3ccccc23)c(O)c1", "values": [
      {"measurement": "T/C", "setting": "[1]", "result": "113 % of control"}
    ]},
    {"smiles": "COc1ccc(-c2cc(=O)c3cc(OC)c(OC)cc3o2)cc1OC", "values": [
      {"measurement": "T/C", "setting": "dose: 1.88 mg/kg/injection, schedule: Q01DX009 (ip), vehicle: saline", "result": "94 % of control"},
      {"measurement": "T/C", "setting": "dose: 3.75 mg/kg/injection, schedule: Q01DX009 (ip), vehicle: saline", "result": "91 % of control"}
    ]},
    {"smiles": "Nc1ccccc1C(=O)Nc1ncn[nH]1", "values": [
      {"measurement": "T/C", "setting": "[7]", "result": "96 % of control"},
      {"measurement": "T/C", "setting": "[8]", "result": "90 % of control"},
      {"measurement": "T/C", "setting": "[9]", "result": "94 % of control"}
    ]},
    {"smiles": "O=C(NC(=S)N1CC=CCC1)c1ccccc1", "values": [
      {"measurement": "T/C", "setting": "[7]", "result": "87 % of control"},
      {"measurement": "T/C", "setting": "[8]", "result": "111 % of control"},
      {"measurement": "T/C", "setting": "[9]", "result": "108 % of control"},
      {"measurement": "T/C", "setting": "[10]", "result": "101 % of control"}
    ]},
    {"smiles": "BrC1c2cccc3cccc(c23)C1Br", "note": "(stereo not drawn)", "values": [
      {"measurement": "T/C", "setting": "[8]", "result": "150 % of control"},
      {"measurement": "T/C", "setting": "[9]", "result": "88 % of control"}
    ]},
    {"smiles": "CCSC1(SCC)C(=O)OC2=C(CCCC2)C1N(C)c1ccccc1", "note": "(stereo not drawn)", "values": [
      {"measurement": "T/C", "setting": "[7]", "result": "96 % of control"},
      {"measurement": "T/C", "setting": "[8]", "result": "94 % of control"},
      {"measurement": "T/C", "setting": "[9]", "result": "91 % of control"}
    ]},
    {"smiles": "C[C@]12C[C@@H](F)C(=O)C[C@@H]1CC[C@@H]1[C@@H]2CC[C@]2(C)[C@@H](O)CC[C@@H]12", "values": [
      {"measurement": "T/C", "setting": "[8]", "result": "95 % of control"},
      {"measurement": "T/C", "setting": "[1]", "result": "110 % of control"},
      {"measurement": "T/C", "setting": "[9]", "result": "95 % of control"},
      {"measurement": "T/C", "setting": "[2]", "result": "100 % of control"},
      {"measurement": "T/C", "setting": "[10]", "result": "100 % of control"},
      {"measurement": "T/C", "setting": "[3]", "result": "105 % of control"}
    ]},
    {"smiles": "Nc1nc(SSc2nc(N)nc3c2ncn3C2CC(O)C(CO)O2)c2ncn(C3CC(O)C(CO)O3)c2n1", "note": "(stereo not drawn)", "values": [
      {"measurement": "T/C", "setting": "[4]", "result": "150 % of control"},
      {"measurement": "T/C", "setting": "[5]", "result": "100 % of control"}
    ]}
  ]
}
